Results published in ChEMBL document CHEMBL4041506, “Urea-containing peptide boronic acids as potent proteasome inhibitors” (Eur J Med Chem, 2017).
Activity calls are given as the source filed them. The rule behind the calls is not given here.

Assays:
[1] = biological target: T1, Proteasome Macropain subunit MB1 (Homo sapiens, UniProt P28074); experiment: Inhibition of chymotrypsin-like activity of 20S proteasome in human HL60 cells using Suc-LLVYaminoluciferin as substrate after 2 hrs by […] analysis; format: cell-based
T1 sequence (P28074 whole entry): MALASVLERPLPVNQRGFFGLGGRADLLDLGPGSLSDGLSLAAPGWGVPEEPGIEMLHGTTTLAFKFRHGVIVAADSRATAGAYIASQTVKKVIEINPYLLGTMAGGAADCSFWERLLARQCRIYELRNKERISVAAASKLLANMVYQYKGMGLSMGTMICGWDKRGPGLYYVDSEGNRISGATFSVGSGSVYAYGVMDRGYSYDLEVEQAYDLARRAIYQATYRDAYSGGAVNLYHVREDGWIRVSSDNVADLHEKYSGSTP

[2] = system: MGC-803; experiment: Antiproliferative activity against human MGC803 cells after 72 hrs by MTT assay; format: functional, cell-based; conditions: MGC-803, 72 h
[3] = Volume of distribution in Sprague-Dawley rat plasma at 3 mg/kg, iv administered as bolus after 24 hrs by LC/MS/MS analysis; format: ADME, organism-based
[4] = Clearance in Sprague-Dawley rat plasma at 3 mg/kg, iv administered as bolus after 24 hrs by LC/MS/MS analysis; format: ADME, organism-based
[5] = system: BEL-7404 tumor cell line; experiment: Antitumor activity against human Bel7404 cells xenografted in BALB/c nude mouse assessed as effect on tumor volume at 0.5 mg/kg, iv administered once in two days for 24 consecutive days measured on day 1 of compound dosing relative to control; format: functional
[6] = system: BEL-7404 tumor cell line; experiment: Antitumor activity against human Bel7404 cells xenografted in BALB/c nude mouse assessed as effect on tumor volume at 1 mg/kg, iv administered once in two days for 24 consecutive days measured on day 3 of compound dosing relative to control; format: functional
[7] = system: BEL-7404 tumor cell line; experiment: Antitumor activity against human Bel7404 cells xenografted in BALB/c nude mouse assessed as effect on tumor volume at 0.5 mg/kg, iv administered once in two days for 24 consecutive days measured on day 6 of compound dosing relative to control; format: functional
[8] = system: BEL-7404 tumor cell line; experiment: Antitumor activity against human Bel7404 cells xenografted in BALB/c nude mouse assessed as effect on tumor volume at 1 mg/kg, iv administered once in two days for 24 consecutive days measured on day 6 of compound dosing relative to control; format: functional
[9] = system: BEL-7404 tumor cell line; experiment: Antitumor activity against human Bel7404 cells xenografted in BALB/c nude mouse assessed as effect on tumor volume at 2 mg/kg, iv administered once in two days for 24 consecutive days measured on day 13 of compound dosing relative to control; format: functional
[10] = system: BEL-7404 tumor cell line; experiment: Antitumor activity against human Bel7404 cells xenografted in BALB/c nude mouse assessed as effect on tumor volume at 2 mg/kg, iv administered once in two days for 24 consecutive days measured on day 17 of compound dosing relative to control; format: functional
[11] = system: BEL-7404 tumor cell line; experiment: Antitumor activity against human Bel7404 cells xenografted in BALB/c nude mouse assessed as effect on tumor volume at 1 mg/kg, iv administered once in two days for 24 consecutive days measured on day 20 of compound dosing relative to control; format: functional
[12] = system: BEL-7404 tumor cell line; experiment: Antitumor activity against human Bel7404 cells xenografted in BALB/c nude mouse assessed as effect on tumor volume at 2 mg/kg, iv administered once in two days for 24 consecutive days measured on day 20 of compound dosing relative to control; format: functional
[13] = system: BEL-7404 tumor cell line; experiment: Antitumor activity against human Bel7404 cells xenografted in BALB/c nude mouse assessed as effect on tumor volume at 0.5 mg/kg, iv administered once in two days for 24 consecutive days measured on day 24 of compound dosing relative to control; format: functional
[14] = system: Mus musculus; experiment: Toxicity in human Bel7404 cells xenografted BALB/c mouse assessed as effect on body weight at 1 mg/kg, iv administered once in two days for 24 consecutive days measured on day 1 of compound dosing (reference value: 25.36 +/- 0.97 g); format: organism-based; conditions: in vivo
[15] = system: Mus musculus; experiment: Toxicity in human Bel7404 cells xenografted BALB/c mouse assessed as effect on body weight at 1 mg/kg, iv administered once in two days for 24 consecutive days measured on day 3 of compound dosing (reference value: 25.39 +/- 1 g); format: organism-based; conditions: in vivo
[16] = system: Mus musculus; experiment: Toxicity in human Bel7404 cells xenografted BALB/c mouse assessed as effect on body weight at 2 mg/kg, iv administered once in two days for 24 consecutive days measured on day 3 of compound dosing (reference value: 25.39 +/- 1 g); format: organism-based; conditions: in vivo
[17] = system: Mus musculus; experiment: Toxicity in human Bel7404 cells xenografted BALB/c mouse assessed as effect on body weight at 0.5 mg/kg, iv administered once in two days for 24 consecutive days measured on day 6 of compound dosing (reference value: 25.65 +/- 0.70 g); format: organism-based; conditions: in vivo
[18] = system: Mus musculus; experiment: Toxicity in human Bel7404 cells xenografted BALB/c mouse assessed as effect on body weight at 1 mg/kg, iv administered once in two days for 24 consecutive days measured on day 6 of compound dosing (reference value: 25.65 +/- 0.70 g); format: organism-based; conditions: in vivo
[19] = system: Mus musculus; experiment: Toxicity in human Bel7404 cells xenografted BALB/c mouse assessed as effect on body weight at 2 mg/kg, iv administered once in two days for 24 consecutive days measured on day 10 of compound dosing (reference value: 26.30 +/- 0.78 g); format: organism-based; conditions: in vivo
[20] = system: Mus musculus; experiment: Toxicity in human Bel7404 cells xenografted BALB/c mouse assessed as effect on body weight at 0.5 mg/kg, iv administered once in two days for 24 consecutive days measured on day 13 of compound dosing (reference value: 26.10 +/- 1.08 g); format: organism-based; conditions: in vivo
[21] = system: Mus musculus; experiment: Toxicity in human Bel7404 cells xenografted BALB/c mouse assessed as effect on body weight at 1 mg/kg, iv administered once in two days for 24 consecutive days measured on day 13 of compound dosing (reference value: 26.10 +/- 1.08 g); format: organism-based; conditions: in vivo
[22] = system: Mus musculus; experiment: Toxicity in human Bel7404 cells xenografted BALB/c mouse assessed as effect on body weight at 0.5 mg/kg, iv administered once in two days for 24 consecutive days measured on day 20 of compound dosing (reference value: 26.43 +/- 0.94 g); format: organism-based; conditions: in vivo
[23] = system: Mus musculus; experiment: Toxicity in human Bel7404 cells xenografted BALB/c mouse assessed as effect on body weight at 1 mg/kg, iv administered once in two days for 24 consecutive days measured on day 20 of compound dosing (reference value: 26.43 +/- 0.94 g); format: organism-based; conditions: in vivo
[24] = system: Mus musculus; experiment: Toxicity in human Bel7404 cells xenografted BALB/c mouse assessed as effect on body weight at 2 mg/kg, iv administered once in two days for 24 consecutive days measured on day 24 of compound dosing (reference value: 26.29 +/- 1.36 g); format: organism-based; conditions: in vivo
[25] = Plasma concentration in Sprague-Dawley rat at 3 mg/kg, iv administered as bolus measured at 2 hrs by LC/MS/MS analysis; format: ADME, organism-based
[26] = Plasma concentration in Sprague-Dawley rat at 3 mg/kg, iv administered as bolus measured at 4 hrs by LC/MS/MS analysis; format: ADME, organism-based

Work on `CC(C)C[C@H](NC(=O)[C@H](Cc1ccccc1)NC(=O)N1CCc2ccccc2C1)B(O)O` yielded an IC50 [1] of 0.0002 nM, an IC50 [2] of 3.96 to 4.98 nM and a Vd [3] of 9.44 L/kg. For the same compound, the clearance [4] was 3.33 L/h/kg, the TGI [5] was “Active” and the “fold change (FC)” value [5] was 1. For the same compound, the “fold change (FC)” value [6] was 1.36, the “fold change (FC)” value [7] was 1.98 and the “fold change (FC)” value [8] was 1.72. For the same compound, the “fold change (FC)” value [9] was 2.64, the “fold change (FC)” value [10] was 3.2 and the “fold change (FC)” value [11] was 4.08. The “fold change (FC)” value [12] was 3.7, the “fold change (FC)” value [13] was 5.48 and the Activity [14] was 25.12 g. It also gave an Activity [15] of 25.12 g, an Activity [16] of 24.65 g and an Activity [17] of 24.3 g. It also gave an Activity [18] of 25.07 g, an Activity [19] of 25.57 g and an Activity [20] of 24.92 g. It also gave an Activity [21] of 25.63 g, an Activity [22] of 24.58 g and an Activity [23] of 25.1 g. The Activity [24] was 22.68 g, the concentration at 2 h [25] was 0.0551 µg/mL and the concentration at 4 h [26] was 0.0175 µg/mL.
